PMC7679387, “VZHE-039, a novel antisickling agent that prevents erythrocyte sickling under both hypoxic and anoxic conditions” (Scientific Reports, 2020)
Entries after “also recorded” stand apart in the source; their conditions may differ. Read-outs that look alike come from different tables or passages of the source.

Key:
[1] = biological target: T1, Hb (Homo sapiens, UniProt P69905); set-up: method as in PMID 30289405; conditions: previously observed, cited from earlier work
T1 construct: whole blood suspensions from subjects with homozygous SCD (Hct of 20%); from tissue; host or cells: whole blood / red blood cells of patients with homozygous SS sickle cell disease; lysate for HPLC and OEC
T1 sequence (P69905 2-142): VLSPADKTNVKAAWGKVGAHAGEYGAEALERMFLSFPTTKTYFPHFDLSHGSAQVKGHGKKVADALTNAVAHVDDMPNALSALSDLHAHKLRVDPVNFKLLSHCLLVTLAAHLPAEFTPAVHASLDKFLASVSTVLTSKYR
T1 sequence (P68871 with tags, fused parts or gaps E7V partner): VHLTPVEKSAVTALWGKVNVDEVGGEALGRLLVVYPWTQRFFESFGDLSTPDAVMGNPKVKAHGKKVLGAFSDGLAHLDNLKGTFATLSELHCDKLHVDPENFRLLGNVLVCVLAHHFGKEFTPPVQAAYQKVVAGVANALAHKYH

[2] = system: SS cells; test: Antisickling activity under anoxia (100% N2); format: cell-based, human; conditions: 2 mM, 100% N2 gas, 30 min
Description: Therefore, another objective in the targeted design of VZHE-039 was to complement its O2-dependent antisickling activity—common to this class of aromatic aldehydes—with an improved O2-independent antisickling activity through proximity-enhanced auxiliary interactions with the αF-helix. Findings from the VZHE-039 crystallographic studies indicate that we achieved the structural objective of enhanced interactions between the methylhydroxy substituent and the αF-helix. We further asked whether these enhanced interactions would translate to an improvement in the O2-independent antisickling activity—as hypothesized. We therefore explored the potential O2-independent activity of VZHE-039, by testing its antisickling properties under complete deoxygenated/anoxic conditions (i.e., 100% N2). […] For internal control purposes, aliquots from samples used for testing for antisickling studies at 2.5% O2 (see above) were also used for testing the antisickling effect of these compounds under 100% N2 gas, therefore, helping elucidate the antisickling effects due to O2-dependent activity of the compounds. Since this experimental design utilized aliquots of the same samples under different gas conditions, it ensured that the assay was free of any potential errors associated with variability in hematocrit and accuracy in drug concentrations.
We conducted two studies to test the antisickling property of VZHE-039 under anoxia to establish the secondary mechanism of action. In the first study, we conducted antisickling studies as described above and also previously reported (2.5% O2)[33], using 2 mM concentrations of VZHE-039, and the controls vanillin, TD-7 and Voxelotor. After 1 h, aliquot samples were fixed with 2% glutaraldehyde without exposure to air. Then the incubation chamber was opened and exposed to air for 15 min to ensure complete re-oxygenation and reversal of the sickled cells to normal round cells. Reversal was confirmed by microscopy. The incubation chamber was then closed, and the assay was repeated under 100% nitrogen gas for 30 min, at which point aliquots were obtained and fixed. Aliquot samples were then subjected to microscopic morphological analysis of bright field images as previously described. Resulting sickled cells (percentages) were compared across samples, and between aliquots of the same samples that had been obtained either under 2.5% oxygen or 100% nitrogen.

[3] = system: SS cells; set-up: method as in PMID 30289405; conditions: previously observed, cited from earlier work
[4] = biological target: T2, HbS (Homo sapiens, UniProt P69905); set-up: method as in PMID 30289405; conditions: previously observed, cited from earlier work
T2 construct: whole blood suspensions from subjects with homozygous SCD (Hct of 20%); from tissue; host or cells: whole blood / red blood cells of patients with homozygous SS sickle cell disease; lysate for HPLC and OEC
T2 sequence (P69905 2-142): as the sequence (P69905 2-142) above
T2 sequence (P68871 with tags, fused parts or gaps E7V partner): as the sequence (P68871 with tags, fused parts or gaps E7V partner) above

[5] = biological target: T3, HbA (Homo sapiens, UniProt P69905); test: In vitro time-dependent Hb oxygen equilibrium study using normal whole blood (tonometry); format: cell-based; conditions: 2 mM, Hct 30%, 37 °C
T3 construct: fresh normal adult whole blood (Hct of 30%); from tissue; host or cells: normal adult whole blood (red blood cells)
T3 sequence (P69905 2-142 limits assumed): as the sequence (P69905 2-142) above
T3 sequence (P68871 2-147 partner limits assumed): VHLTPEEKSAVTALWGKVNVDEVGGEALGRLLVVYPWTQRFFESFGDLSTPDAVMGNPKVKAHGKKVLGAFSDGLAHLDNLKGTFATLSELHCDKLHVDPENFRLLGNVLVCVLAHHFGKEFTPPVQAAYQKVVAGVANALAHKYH
Description: The antisickling activity of aromatic aldehydes is dependent on Schiff-base interaction between the aldehyde moiety and the Hb αVal1 amines (Schiff-base adduct) and the increase in the protein affinity for oxygen[30]–[40]. […] To overcome this pharmacologic limitation, Tucaresol and Voxelotor, two potent antisickling agents utilized a ortho-hydroxyl moiety (relative to the aldehyde group) on the benzaldehyde ring to form intramolecular hydrogen-bond interaction with the aldehyde group to form hemiacetal-like moiety, which led to significant reduction in oxidative metabolism of the aldehyde[28],[50]. […] VZHE-039, however, incorporates this ortho-hydroxyl moiety on the benzene ring, which is expected to increase its oxidative metabolic stability. This was tested by incubating 2 mM of VZHE-039 (with vanillin and TD-7 as controls) with fresh normal adult whole blood (Hct of 30%) at 37 °C as a surrogate measure of oxidative metabolism. At defined time points (1, 4, 8, 12 and 24 h), aliquot samples were drawn, and subsequently analyzed for their P50-shifts relative to the initial P50 value, using three-point tonometry. In parallel, an untreated control sample was also assessed to control for any time-dependent, but drug-independent changes in P50 values. […] These findings confirm the importance of the ortho-hydroxyl group in aromatic aldehydes in preventing or reducing enzymatic metabolism of aldehyde in RBCs.
Normal whole blood samples (hematocrit 30%) in the absence (control) or presence of 2 mM concentration VZHE-039 (solubilized in DMSO) were incubated at 37 °C for 24 h with shaking (at 140 rpm). At 1, 4, 8, 12 and 24 h time intervals, aliquots of this mixture were removed and then subjected to OEC analysis using tonometry as previously described. Vanillin and TD-7 were used as positive controls, while DMSO was tested as negative control. Briefly, the compound-treated blood samples were incubated in IL 237 tonometers (Instrumentation Laboratories, Inc. Lexington, MA) for approximately 10 min at 37 °C, and allowed to equilibrate at oxygen tensions 6, 20, and 40 mmHg. The samples were then aspirated into an ABL 700 Automated Blood Gas Analyzer (Radiometer) to determine the pH, partial pressure of CO2 (pCO2), partial pressure of oxygen (pO2), and Hb oxygen saturation values (SO2). The measured values of pO2 (mmHg) and SO2 at each pO2 value were then subjected to a non-linear regression analysis using the program Scientist (Micromath, Salt Lake City, UT) to estimate P50 as previously reported.

[6] = experimental animals and humans; cited from earlier work
[7] = biological target: T2, HbS; test: Hb modification (HbS adduct formation) by cation-exchange HPLC of lysates from SS cells; format: cell-based; conditions: for Hb Modification: SS cells, 20% hematocrit, HPLC of hemolysates
Procedure: (§1) For our previously studied compounds (e.g., INN-312, TD-7, SAJ-310, INN-298) that incorporate methoxyPy substitution to vanillin analogs, we observed a significant increase in functional and biological activity as a result of increased protein interactions[31],[33],[35],[36]. We therefore expected similar effects for VZHE-039, which we tested by following VZHE-039 activity (measured by Hb adduct formation, P50-shift and RBC sickling inhibition) using SS blood. Briefly, we incubated 0.5, 1, and 2 mM concentrations of VZHE-039 with whole blood suspensions from subjects with homozygous SCD (Hct of 20%) under hypoxic conditions (2.5% O2/97.5% N2) at 37 °C for 2 h for expected peak adduct. Aliquot blood samples were drawn into a fixative (2% glutaraldehyde solution), and sickling was assessed by microscopy[31],[33],[35],[36]. Aliquot samples were also subjected to cation-exchange HPLC analyses to assess the degree of Hb modification to the high-affinity adduct form (Hb adduct formation), as well as standard O2 equilibrium curves (OEC) to assess P50-shifts using hemox analyzer[31],[33],[35],[36]. […] The improved potency of Voxelotor has been attributed to reduced binding stoichiometry, i.e. while Voxelotor binds Hb at a 1:1 ratio, VZHE-039 binds Hb at a 2:1 ratio. […] This observation, as will be discussed later is likely due to a meaningful contribution from the novel O2-independent antisickling activity as result of the strong contact with the αF-helix.
(§2) The effect of VZHE-039 on RBC sickling, Hb modification, and Hb oxygen equilibrium was studied utilizing samples from consented individuals with homozygous SCD following previous procedure. Briefly, blood suspended in Hemox buffer and supplemented with glucose and bovine serum albumin, to a final hematocrit of 20% were incubated under air in the absence or presence of 0.5 mM, 1 mM and 2 mM VZHE-039 at 37 °C for 1 h. This was followed by incubating the suspensions under hypoxic conditions (2.5% O2/97.5% N2) at 37 °C for 2 h. Aliquot samples were obtained and fixed with 2% glutaraldehyde solution without exposure to air, and then subjected to microscopic morphological analysis of bright field images (at × 40 magnification) of single layer cells on an Olympus BX40 microscope fitted with an Infinity 2 camera (Olympus), and the coupled Image Capture software. Leftover samples were washed in phosphate-buffer saline, and hemolyzed in hypotonic lysis buffer for subsequent Hb-modification and oxygen equilibrium analyses.
Finally, for the Hb adduct formation studies, the above clarified lysates were subjected to cation-exchange HPLC (Hitachi D-7000 Series, Hitachi Instruments, Inc., San Jose, CA), using a weak cation-exchange column (Poly CAT A: 30 mm × 4.6 mm, Poly LC, Inc., Columbia, MD). A commercial standard consisting of approximately equal amounts of composite HbF, HbA, HbS and HbC (Helena Laboratories, Beaumont, TX), was utilized as the reference for isotypes. The areas of new peaks, representing HbS adducts, were obtained, calculated as percentage fractions of total Hb area, and reported as levels of modified Hb.

[8] = biological target: T1, Hb; test: Oxygen equilibrium (P50 shift) of lysates from SS cells, Hemox Analyzer; format: cell-based; conditions: 20% hematocrit
Procedure: as §1, §2
For the oxygen equilibrium studies, 100 μL aliquot samples from the above clarified lysate were added to 4 mL of 0.1 M potassium phosphate buffer, pH 7.0, in cuvettes and subjected to hemoximetry analysis using a Hemox Analyzer (TCS Scientific Corp.) to determine the P50 values.

[9] = system: SS cells; test: Antisickling study with SS cells under hypoxia (2.5% O2); format: cell-based, human; conditions: Homo sapiens, 20% hematocrit, […] O2, 37 °C, read-out: Sickling Inhibition
Procedure: as §1, §2

[10] = system: SS RBCs; test: pO2-dependent degree of sickling in Hemox Analyzer; format: cell-based, human; conditions: 2 mM, Hct 20%
Procedure: In a confirmatory study, a pO2 dependent degree of sickling of VZHE-039 at 1 and 2 mM doses, with Voxelotor as a control was performed using a Hemox analyzer. […] Oksenberg et al.reported similar observations with Voxelotor[28], where the compound lost its potent antisickling activity at low pO2 values.
The second study established pO2 dependent degree of sickling of VZHE-039, with Voxelotor as a control. Concurrently, blood samples, hematocrit 20%, were incubated without any drug (control) or with 1, or 2 mM VZHE-039 at 37 °C for 1 h. A second control sample was incubated with 2 mM Voxelotor. At conclusion, 100 uL aliquots of each suspension were mixed with 2.5 mL Hemox buffer (pH 7.4, supplemented with antifoam), and transferred into the sample chamber of the Hemox Analyzer. Compressed air was then flushed through the sample to ensure complete oxygenation (at 150 mmHg). Nitrogen gas was then introduced into the sample chamber, and 50 uL aliquots were obtained and fixed at defined pO2 values. At conclusion, all fixed samples were subjected to microscopic analysis for their degree of sickling, and results were plotted using Prism Graph Pad software. The experiments were conducted in three replicates on different days, and mean and standard deviation values are reported.

[11] = cited from earlier work

COc1ccc(OCc2cccc(CO)n2)c(C=O)c1 [TD-7]
P50-shift ([1]; 0.5 mM): 10%
P50-shift ([1]; 1 mM): 28%
P50-shift ([1]; 2 mM): 48%
Antisickling effect under anoxia (in words) [2]: showed some antisickling effect under anoxia, it was significantly less potent than VZHE-039
RBC sickling inhibition ([3]; 0.5 mM): 16%
RBC sickling inhibition ([3]; 1 mM): 29%
RBC sickling inhibition ([3]; 2 mM): 85%
Hb Modification ([4]; 0.5 mM): 26%
Hb Modification ([4]; 1 mM): 45%
Hb Modification ([4]; 2 mM): 74%
Time of maximum effect (P50-shift) [5]: 1 h
Reduction in activity (P50-shift) at 24 h ([5]; relative to maximum effect): ~ 45%

O=Cc1c(O)cccc1OCc1ccc(C(=O)O)cc1 [Tucaresol, 4[2-formyl-3-hydroxyphenoxymethyl] benzoic acid]
Half-life [6]: > 12 h

COc1cc(C=O)ccc1O [Vanillin, vanillin]
Antisickling effect under anoxia (in words) [2]: showed no effect under anoxic conditions
Time course of P50-shift (in words) ([5]; 1-24 h): did not have any effects beyond 4 h

CC(C)n1nccc1-c1ncccc1COc1cccc(O)c1C=O [Voxelotor, reference compound]
Hb Modification ([7]; 0.5 mM): 55%
Hb Modification ([7]; 1 mM): 100%
Hb modification (in words) ([7]; 2 mM, samples of the anoxia study): complete Hb modification to the high-O2-affinity form
P50 Shift (ΔP50) ([8]; 0.5 mM): 41%
P50 Shift (ΔP50) ([8]; 1 mM): 80%
Antisickling effect under anoxia (in words) [2]: lost its inherent antisickling effects remarkably under anoxic conditions
inhibition at 500 µM ([9]; 0.5 mM): 56%
inhibition at 1000 µM ([9]; 1 mM): 98%
Half-life [6]: > 12 h
pO2-dependent sickling inhibition (in words) [10]: completely prevent sickling at high pO2; also recorded: lost this capability at low pO2
Partitioning into the RBC compartment [11]: 90%
